Results published in ChEMBL document CHEMBL1150032, “-hydroxy- and -ketoester functionalized thrombin inhibitors” (Bioorg Med Chem Lett, 1992).

How the values were obtained:
[1] = target: T1, Prothrombin (Homo sapiens, UniProt P00734); assay: Inhibitory concentration against thrombin when incubated with the compound for 3 min
[2] = Inhibitory concentration required to double thrombin clotting time; format: functional, Homo sapiens
[3] = target: T1, Prothrombin; assay: Overall Inhibitory constant against thrombin was determined
[4] = Inhibitory concentration required to double thrombin clotting time in batch 1; format: functional, Homo sapiens
[5] = Inhibitory concentration required to double thrombin clotting time in batch 2; format: functional, Homo sapiens
[6] = target: T1, Prothrombin; assay: Inhibitory concentration against thrombin when incubated with the compound for 3 min in batch 1
[7] = target: T1, Prothrombin; assay: Inhibitory concentration against thrombin when incubated with the compound for 3 min in batch 2

| IC50 [1] | IC50 [2] | Ki [3] | IC50 [4] | IC50 [5] | IC50 [6] | IC50 [7] | Compound |
| --- | --- | --- | --- | --- | --- | --- | --- |
| 48 µM | – | – | – | – | – | – | COC(=O)C(O)[C@H](CCCCN=C(N)N)NC(=O)[C@@H]1CCCN1C(=O)[C@H](N)Cc1ccccc1 (stereo not given in full) |
| 0.032 µM | 0.39 µM | 0.0017 µM | – | – | – | – | COC(=O)C(O)(OC)C(CCCCN)NC(=O)[C@@H]1CCCN1C(=O)[C@H](N)Cc1ccccc1 (stereo not given in full) |
| 0.049 µM | 0.4 µM | – | – | – | – | – | NC(N)=NCCC[C@@H](C=O)NC(=O)[C@@H]1CCCN1C(=O)[C@H](N)Cc1ccccc1 |
| – | – | – | > 300 µM | > 300 µM | 30.5 µM | 20.2 µM | COC(=O)[C@@H](O)[C@H](CCCCN)NC(=O)[C@@H]1CCCN1C(=O)[C@H](N)Cc1ccccc1 |
